Values of other authors, collected in paper PMC6166790 (Nature, 2018).

Tested on: CLR/RAMP2 or CLR/RAMP3

Question: For adrenomedullin [AM], which receptor response selectivity is on record?
Answer: selective AM responses
